The values below are quoted from earlier work in patent publication US20090181887A1, “USE OF A GLP-1 MOLECULE FOR TREATMENT OF BILIARY DYSKINESIA AND/OR BILIARY PAIN/DISCOMFORT” (Gastrotech Pharma A/S, priority 2005, published 2009).

For the series the following is noted: in man; Wettergren et al, 1993; Gutniak et al, 1996.

Where no end group is shown, it is not given here.

On to “glucagon-like peptide-1 (HAEGTFTSDVSSYLEGQAAKEFIAWLVKGR-NH2; ends and bridges not checked; UniProt P01275 98-127, looked up) [GLP-1, gastrointestinal peptide hormone; natural forms GLP-1 (7-36)amide and GLP-1 (7-37)]”, for which the “slowing of gastric emptying” value is 50%.
